Data taken from US20260027087A1, “DOSING REGIMENS COMPRISING A KAT6 INHIBITOR FOR THE TREATMENT OF CANCER” (PFIZER INC., priority 2022, published 2026).
Where “and” joins values, the source holds several entries; their conditions need not be identical. Identical values can stand only once. Like-named read-outs stand apart in the source and are kept apart here.

Legend:
[1] = Phase 1 clinical trial: COMPOUND A plasma pharmacokinetics; type: in vivo, human; conditions: for CL/F (apparent clearance) / Cmax / AUC: geometric mean (CV %); for Tmax / Cmax / AUC: human, plasma; for AUC: read-out: AUC24
Protocol: (§1) The patients in this trial are intolerant of or resistant to standard therapy.
COMPOUND A was orally administered at 2 mg, 5 mg, 8 mg, and 15 mg QD alone or 5 mg QD in combination with 500 mg of fulvestrant.
Preliminary pharmacokinetic parameters are available from 23 participants following the 1st oral dose (Day 1 of Cycle 1) and at steady state (Day 15 of Cycle 1) and presented in Table 1.
1S COMPOUND A was orally administered at 1 mg, 2 mg, 5 mg, 8 mg, and 15 mg QD alone or 5 mg QD in combination with 500 mg of fulvestrant.
A total of 29 participants had evaluable PK concentration data in Part 1A and Part 1B, at the time of the data cut-off date of 30 Sep. 2022. Of these participants, two (2) in the 1 mg QD dose group were excluded from Cycle 1 Day 15 summaries due to either dose interruption impacting PK analysis or sample collection after the data cut-off date.
Participants were to swallow COMPOUND A whole tablets and were not to manipulate or chew the study intervention prior to swallowing. COMPOUND A was administered QD by mouth for all cohorts on a continuous basis. The once daily dose was administered in 24±3 hour intervals (i.e., no less than 21 hours and no more than 27 hours apart). All cycles were 28 days in length.

[2] = test system: locally advanced or metastatic selected solid tumors (ER+HER2− breast cancer, CRPC, or NSCLC); assay: Phase 1 clinical trial: clinical efficacy (tumor response); type: in vivo, human; conditions: for confirmed and durable partial responses (PR): ER+/HER2− breast cancer; for confirmed and durable partial responses, response-evaluable pts with ER+/HER2− mBC: progressed on prior ET+CDK4/6 inhibitor
Text: as §1
Study Design: The overall study design is depicted in FIG. 1. The study contains two parts, a dose escalation (Part 1) followed by a dose expansion (Part 2). Not shown in FIG. 1 are Part 1D and Part 2D, which are additional arms in Part 1 and Part 2 in the study design and are described below.
Part 1A (Monotherapy Dose Escalation) contains dose escalation as monotherapy in patients with locally advanced or metastatic ER+HER2− breast cancer, CRPC, or NSCLC that is resistant or intolerant to standard therapy or for whom no standard therapy is available, to determine the maximum tolerated dose (MTD) and select the RDE. […] A 2-parameter Bayesian Logistic Regression Model (BLRM) was used for dose finding.
Part 1B (Combination Dose Escalation), COMPOUND A in combination with fulvestrant was evaluated for dose finding in patients with locally advanced or metastatic ER+HER2− breast cancer (2L+) who progressed after at least one line of treatment with an endocrine therapy and a CDK4/6 inhibitor to determine the MTD and RDE for this combination. Combination RDE may be different from monotherapy RDE due to potential toxicity overlap. A 5-parameter BLRM was used for dose finding.

[3] = Human pharmacokinetics predicted from preclinical data; conditions: in humans, based on preclinical data
[4] = Parts 1A + 1B, of the 10 with SD

What does the source list for COc1ccccc1S(=O)(=O)Nc1noc2cc(Cn3cccn3)cc(OC)c12 [COMPOUND A, 2-Methoxy-N-{4-methoxy-6-[(1H-pyrazol-1-yl)methyl]-1,2-benzoxazol-3-yl}benzene-1-sulfonamide]?
time to steady state ([1]; 1 mg to 15 mg QD, cut-off 30 Sep. 2022): achieved by Cycle 1 Day 15; Rac (ratio of AUC24 at Cycle 1 Day 15 to AUC24 at Cycle 1 Day 1) ([1]; 5 mg QD oral in combination with fulvestrant, N=4, median (minimum, maximum)): 4.2 (3.2, 5.1); Rac (ratio of AUC24 at Cycle 1 Day 15 to AUC24 at Cycle 1 Day 1) ([1]; 5 mg QD oral monotherapy, N=4, median (minimum, maximum)): 4.1 (2.9, 5.5); Rac (ratio of AUC24 at Cycle 1 Day 15 to AUC24 at Cycle 1 Day 1) ([1]; 8 mg QD oral monotherapy, N=7, median (minimum, maximum)): 3.8 (3.1, 5.1); Rac (ratio of AUC24 at Cycle 1 Day 15 to AUC24 at Cycle 1 Day 1) ([1]; 15 mg QD oral monotherapy, N=6, median (minimum, maximum)): 3.8 (2.3, 4.7); CL/F (apparent clearance) ([1]; C1D15, 5 mg QD oral in combination with fulvestrant, N=4): 0.10 (26.9) L/hr; CL/F (apparent clearance) ([1]; C1D15, 5 mg QD oral monotherapy, N=4): 0.14 (23.9) L/hr; CL/F (apparent clearance) ([1]; C1D15, 8 mg QD oral monotherapy, N=7): 0.10 (9.7) L/hr; CL/F (apparent clearance) ([1]; C1D15, 15 mg QD oral monotherapy, N=6): 0.12 (43.2) L/hr; drug-drug interaction between COMPOUND A and fulvestrant ([1]; CL/F similar alone and in combination): no apparent drug-drug interaction; linearity of pharmacokinetics ([1]; CL/F similar at each dose level, 2 mg to 15 mg, cut-off 23 Mar. 2022): linear; linearity of PK ([1]; between 1 mg and 15 mg QD dose regimens, cut-off 30 Sep. 2022): linear; COMPOUND A exposure (AUC24) versus dose ([1]; dose range 2 mg to 15 mg, alone or in combination with fulvestrant): increased proportionally when dose was increased; Tmax ([1]; oral, following repeated daily dosing to Day 15, read-out: median Tmax): 3 h; Cmax ([1]; po, 5 mg, C1D1 (after 1st dose), 5 mg QD oral monotherapy, N=4): 508 ng/mL; AUC ([1]; po, 5 mg, C1D1, 5 mg QD oral monotherapy, N=4): 8900 ng·h/mL; Tmax ([1]; po, 5 mg, C1D1, 5 mg QD oral monotherapy, N=4, median (minimum, maximum), read-out: Tmax): 3.5 h; Cmax ([1]; po, 5 mg, C1D15 (steady state), 5 mg QD oral monotherapy, N=4): 1710 ng/mL; AUC ([1]; po, 5 mg, C1D15, 5 mg QD oral monotherapy, N=4): 35900 ng·h/mL; Tmax ([1]; po, 5 mg, C1D15, 5 mg QD oral monotherapy, N=4, median (minimum, maximum), read-out: Tmax): 3 h; Cmax ([1]; po, 8 mg, C1D1 (after 1st dose), 8 mg QD oral monotherapy, N=7): 1050 ng/mL; AUC ([1]; po, 8 mg, C1D1, 8 mg QD oral monotherapy, N=7): 20500 ng·h/mL; Tmax ([1]; po, 8 mg, C1D1, 8 mg QD oral monotherapy, N=7, median (minimum, maximum), read-out: Tmax): 3 h; Cmax ([1]; po, 8 mg, C1D15 (steady state), 8 mg QD oral monotherapy, N=7): 3620 ng/mL; AUC ([1]; po, 8 mg, C1D15, 8 mg QD oral monotherapy, N=7): 76500 ng·h/mL; Tmax ([1]; po, 8 mg, C1D15, 8 mg QD oral monotherapy, N=7, median (minimum, maximum), read-out: Tmax): 3 h; Cmax ([1]; po, 15 mg, C1D1 (after 1st dose), 15 mg QD oral monotherapy, N=6): 1940 ng/mL; AUC ([1]; po, 15 mg, C1D1, 15 mg QD oral monotherapy, N=6): 35700 ng·h/mL; Tmax ([1]; po, 15 mg, C1D1, 15 mg QD oral monotherapy, N=6, median (minimum, maximum), read-out: Tmax): 3.5 h; Cmax ([1]; po, 15 mg, C1D15 (steady state), 15 mg QD oral monotherapy, N=6): 6030 ng/mL; AUC ([1]; po, 15 mg, C1D15, 15 mg QD oral monotherapy, N=6): 127000 ng·h/mL; Tmax ([1]; po, 15 mg, C1D15, 15 mg QD oral monotherapy, N=6, median (minimum, maximum), read-out: Tmax): 3 h; Cmax ([1]; po, C1D1 (after 1st dose), 5 mg QD oral in combination with fulvestrant, N=4): 641 ng/mL; AUC ([1]; po, C1D1, 5 mg QD oral in combination with fulvestrant, N=4): 12100 ng·h/mL; Tmax ([1]; po, C1D1, 5 mg QD oral in combination with fulvestrant, N=4, median (minimum, maximum), read-out: Tmax): 6 h; Cmax ([1]; po, C1D15 (steady state), 5 mg QD oral in combination with fulvestrant, N=4): 2340 ng/mL; AUC ([1]; po, C1D15, 5 mg QD oral in combination with fulvestrant, N=4): 50100 ng·h/mL; Tmax ([1]; po, C1D15, 5 mg QD oral in combination with fulvestrant, N=4, median (minimum, maximum), read-out: Tmax): 6 h; steady-state concentrations relative to Cerf targets (defined from preclinical models) ([1]; when dosed at ≥1 mg): near or above Cerf targets; Duration of response (DOR) ([2]; 1 patient in Part 1A): 19.4 months; Duration of response (DOR) ([2]; 2 patients in Part 1B (one value per patient)): 8.1 months and 10 months; clinical efficacy ([2]; 31 participants treated, cut-off 23 Mar. 2022): early signs of clinical efficacy; confirmed and durable partial responses (PR) ([2]; Part 1A (8 mg monotherapy)): 1 patients; confirmed and durable partial responses, response-evaluable pts with ER+/HER2− mBC ([2]; Part 1A (monotherapy)): ⅛; confirmed and durable partial responses, response-evaluable pts with ER+/HER2− mBC ([2]; Part 1B (5 mg QD + fulvestrant)): 2/4; confirmed and durable partial responses (PR) ([2]; Part 1B (5 mg QD/fulvestrant 500 mg)): 2 patients; Stable disease (SD), patients with CRPC [2, 4]: 4; Stable disease (SD), patients with ER+/HER2− breast cancer [2, 4]: 5; Stable disease (SD), patients with NSCLC [2, 4]: 1; confirmed and durable partial responses (PR) ([2]; among response-evaluable patients (n=22)): 3 patients; clinical responses in heavily treated patients with ER+HER2− breast cancer ([2]; as of 30 Sep. 2022): confirmed and durable clinical responses were observed; patients with SD lasting ≥6 months ([2]; as of 30 Sep. 2022): Three; efficacy in ER+HER2− breast cancer patients ([2]; during dose escalation, as of 23 Mar. 2022): signs of efficacy; duration of SD ([2]; patient with CRPC, 5 mg QD): 9.1 months; duration of SD ([2]; patient with CRPC, 15 mg QD): 11.3 months; duration of SD ([2]; patient with ER+/HER2− breast cancer, 8 mg QD): 7.5 months; predicted Vss [3]: ~0.1 L/kg; predicted oral bioavailability [3]: high oral bioavailability; predicted plasma CL [3]: ~6 mL/h/kg; predicted t [3]: approximately 12 h
